Reference: patent US11091786B2, “Butelase-mediated peptide ligation” (Nanyang Technological University, priority 2015, dated 2021)
Values after ≈ are worked out from the molar mass of the structure shown. Numbered stars: 1 amine (or outer) side, 2 acyl side, 3 side chain; on linkers, the order of the positions; unused ones are H or OH. Bridge positions count the residues as written; N and C are the ends. Square brackets hold non-standard residues; d marks the D form. Peptide text beside a SMILES is read from it. I, II: the chains in the order shown. X1 = O=C(CO[*:1])[*:2]; βAla = NCCC(=O)O

What was measured:
[1] = test system: E. cloacae DM 09800; type: cell-based; conditions: DM 09800, 18 h
Procedure: (§1) The following protocol was applied to the radial diffusion assay.
(§2) 1. A single colony was picked and transferred into a 5 ml tube containing 2.5 ml TSB. The culture was shaken at 37° C. for 18 h.
(§3) 2. 50 μl of the stationary phase culture was diluted to 2.5 mL of autoclaved TSB (1:50 dilution) and shaken at 37° C. for another 3 h.
(§4) 3. This subculture was centrifuged at 5000 rpm for 5 min and the supernatant was discarded. The residual cells were washed with cold sterile 10 mM phosphate buffer, pH 7.4 and the buffer was discarded after centrifuge. 5 ml of the same buffer was added to resuspend the cells and its bacteria concentration was determined by measuring its optical density at 620 nm.
(§5) 4. 10 ml of antoclaved, molten underlay gel agar was transferred to a 15-ml eppendorf tube and mixed with 4×10^6 CFU of bacteria by vortexing. The mixture was then poured into a petri dish and gelled in less than […]. Wells were punched against the gel using a Pasteur pippette.
(§6) 5. Peptides to be tested were serially diluted and 3.5 μl of each sample was added to the well. The plates were incubated at 37° C. for 3 h with gel-side up.
(§7) 6. Next, each underlay gel was covered with 10 ml of overlay gel. After the gel solidified, the plates were turned gel-side up and incubated at 37° C. for overnight.
(§8) 7. The following morning, all the plates were taken out and the zone diameters were measured with ruler. All the samples were tested in duplicates and the results were averaged. The final minimum inhibition concentration (MIC) was determined using excel.
(§9) There is a growing interest to develop peptide-based antibiotics (Annu Rev Immunol. 1995, 13, 61-92; J Intern Med. 2003, 254, 197-215; Cent Eur J Biol 2007, 2, 1-33; Int J Pept Res Ther. 2010, 16, 199-213) because, compared with conventional antibiotics, they are less likely to develop drug resistance and have fewer side effects (J Med Chem. 2015, 58, 6533-6548; Biochemistry-Us. 2000, 39, 7159-7169; Eur J Biochem. 2000, 267, 3289-3300; Nucleic Acids Res. 2012, 40, W199-204). To apply the presently disclosed enzymatic method in preparing dendrimeric antimicrobials, inventors synthesized two antimicrobials 12 (bivalent) and 13 (tetravalent) (MS shown in supporting information) which harbored a tetrapeptide RLYR (SEQ ID NO:121) as the antibacterial sequence (Eur J Biochem. 2002, 269, 923-932) by ligating N-acetylated thiodepsipeptide 10 Ac-RLYRN-thioglc-V (SEQ ID NO:120) with dendron core 2 and 6 respectively. The RLYR (SEQ ID NO:121) tetrapeptide contains a BHHB motif (B=basic, H=hydrophobic) which is commonly found in certain potent and broad-spectrum β-stranded antimicrobial peptides (BioDrugs. 2013, 27, 479-493) such as PG (protegrins) (Febs Lett. 1993, 327, 231-236) and RTD-1 (rhesus monkey theta defensin) (Science. 1999, 286, 498-502). This consensus motif with positive charged and hydrophobic residues was successfully used as a dendrimeric antimicrobial in 2002 (Eur J Biochem. 2002, 269, 923-932). Such short peptide-based dendrimeric antimicrobials are broad-spectrum antibiotics and kill bacterial cells through electrostatic and hydrophobic interactions with the negatively charged microbial cytoplasmic membranes (Biochemistry-Us. 2009, 48, 5642-5657). Using a radial diffusion assay, inventors tested the antimicrobial activities against E. coli and S. aureus of these two dendrimeric peptides together with prototypical monomer 11 RLYR (SEQ ID NO:121), mono-, tri-lysine dendron core 2 and 6 for comparison. All assays were performed under a high-salt condition (100 mM NaCl) to simulate physiological conditions. […] The tetravalent dendrimeric structure 13 had further improved antimicrobial activities with MICs<3 μM against both strains. When testing 13 against several drug-resistant strains under high-salt condition, the tetramer construct was broadly active against all six tested strains with MICs ranging from 0.87 to 4.8 μM. […]

[2] = test system: E. coli DM 04604; type: cell-based; conditions: DM 04604, 18 h
Procedure: as §1, §2, §3, §4, §5, §6, §7, §8, §9

[3] = test system: S. aureus DB 14329; type: cell-based; conditions: DB 14329, 18 h
Procedure: as §1, §2, §3, §4, §5, §6, §7, §8, §9

[4] = test system: K. species DR 13779; type: cell-based; conditions: 18 h
Procedure: as §1, §2, §3, §4, §5, §6, §7, §8, §9

[5] = test system: E. coli DU 09777; type: cell-based; conditions: DU 09777, 18 h
Procedure: as §1, §2, §3, §4, §5, §6, §7, §8, §9

[6] = test system: P. aeruginosa DM 14158; type: cell-based; conditions: DM 14158, 18 h
Procedure: as §1, §2, §3, §4, §5, §6, §7, §8, §9

[7] = test system: drug-resistant strains; type: cell-based
Procedure: as §1, §2, §3, §4, §5, §6, §7, §8, §9

[8] = test system: butelase 1; test: Degradation time course of peptide in the presence of butelase 1 (HPLC); type: biochemical; conditions: Clitoria ternatea, butelase 1 in reaction buffer, presence of 0.0005 molar equivalent of butelase 1 (50 nM), peptide 100 μM, 42° C.
Procedure: (§10) FIG. 9. Degradation time course for thiodepsipeptide 1 and depsipeptide 2. Each peptide (100 μM) was incubated in the absence or presence of butelase 1 (50 nM) at 42° C. The peptide stability was monitored by HPLC every […].
(§11) To apply butelase 1 for N-terminal labeling of proteins, inventors used ubiquitin and green fluorescent protein (GFP) as examples (FIG. 4). Since butelase 1 prefers a hydrophobic amino acid (Ile/Leu/Val) or Cys at the P2″ position of an acceptor nucleophile, inventors prepared a recombinant ubiquitin protein (SEQ ID NO:122) with Gly-Ile at the N-terminus and His-tag at the C-terminus. It was also examined whether this method would work if His-tag was located at the N-terminus. Inventors thus prepared a recombinant GFP (SEQ ID NO:123) with an additional Ile inserted between the start codon and the N-terminal His-tag. Both proteins were labeled with the model thiodepsipeptide 1 in the presence of 0.001 molar equivalent of butelase 1. The labeling of proteins was slower as compared to the labeling of peptide 5, probably due to large differences in size between the model peptide and proteins. Furthermore, the N-terminal amino group of proteins may have a lower accessibility to butelase 1 as compared to peptides. […]

[9] = test system: butelase 1; test: Butelase-mediated ligation kinetic characterization (Lineweaver-Burk); type: biochemical, Clitoria ternatea; conditions: 0.1 μM butelase 1, 1 mM GIGGIR, peptide 25 to 400 μM, pH 6.5, 42° C.
Procedure: Ligation assays were performed in 50-μl mixtures containing reaction buffer (1 mM EDTA, 20 mM phosphate buffer, pH 6.5), 0.1 […] butelase 1, 1 mM GIGGIR (SEQ ID NO:114) and varying concentrations of peptides 1-4 (25 to 400 μM). The reactions were performed in triplicate at 42° C. and quenched by adding 5 μl of 1 M HCl solution. The peptides were separated by using a reversed-phase C18 analytical column (150×2.1 mm, Vydac) with a linear gradient from 5% to 40% acetonitrile over 15 min on a Nexera UHPLC system (Shimadzu). The ligation velocities were calculated by converting the HPLC-peak areas of remained linear precursors or the ligated products into concentrations. The identity of each HPLC peak was analyzed by MALDI-TOF MS (ABI 4800 MALDI TOF/TOF). The kinetic parameters (kcat and Km) for each peptide were obtained by the LineweaverBurk plot.

[10] = Degradation time course of peptide in reaction buffer without butelase 1 (HPLC); type: physicochemical; conditions: absence of butelase 1, peptide 100 μM, 42° C.
Procedure: as §10, §11

[11] = test system: butelase 1; conditions: highest reported value; cited from earlier work

CC[C@H](C)[C@H](NC(=O)[C@H](CCCNC(=N)N)NC(=O)[C@H](CC(N)=O)NC(=O)[C@H](CCCNC(=N)N)NC(=O)[C@H](Cc1ccc(O)cc1)NC(=O)[C@H](CC(C)C)NC(=O)[C@H](CCCNC(=N)N)NC(C)=O)C(=O)NCCC(=O)NCCCC[C@H](NC(=O)CCNC(=O)[C@@H](NC(=O)[C@H](CCCNC(=N)N)NC(=O)[C@H](CC(N)=O)NC(=O)[C@H](CCCNC(=N)N)NC(=O)[C@H](Cc1ccc(O)cc1)NC(=O)[C@H](CC(C)C)NC(=O)[C@H](CCCNC(=N)N)NC(C)=O)[C@@H](C)CC)C(=O)NCCCC[C@H](NC(=O)[C@H](CCCCNC(=O)CCNC(=O)[C@@H](NC(=O)[C@H](CCCNC(=N)N)NC(=O)[C@H](CC(N)=O)NC(=O)[C@H](CCCNC(=N)N)NC(=O)[C@H](Cc1ccc(O)cc1)NC(=O)[C@H](CC(C)C)NC(=O)[C@H](CCCNC(=N)N)NC(C)=O)[C@@H](C)CC)NC(=O)CCNC(=O)[C@@H](NC(=O)[C@H](CCCNC(=N)N)NC(=O)[C@H](CC(N)=O)NC(=O)[C@H](CCCNC(=N)N)NC(=O)[C@H](Cc1ccc(O)cc1)NC(=O)[C@H](CC(C)C)NC(=O)[C@H](CCCNC(=N)N)NC(C)=O)[C@@H](C)CC)C(=O)N[C@@H](Cc1ccc(O)cc1)C(N)=O [Tetramer 13, (Ac-RLYRNRIβA)4K2KY] (I: Ac-RLYRNRI[βAla]KKY-NH2 / II: Ac-RLYRNRI[βAla]K / III: Ac-RLYRNRI[βAla] / IV: Ac-RLYRNRI[βAla]; amide I:9-IV:C, I:10-II:C, II:9-III:C)
MIC [1]: 0.9 µM (≈ 4.42 µg/mL)
MIC [2]: 4.5 µM (≈ 22.1 µg/mL)
MIC [3]: 4.8 µM (≈ 23.5 µg/mL)
MIC [4]: 1.5 µM (≈ 7.36 µg/mL)
MIC [5]: 2.2 µM (≈ 10.8 µg/mL)
MIC [6]: 2.3 µM (≈ 11.3 µg/mL)
MICs, broad-spectrum ([7]; all strains tested, including several drug-resistant bacterial strains): < 5 µM
MICs against all six tested drug-resistant strains ([7]; six drug-resistant strains, high-salt condition): 0.87 to 4.8 µM

CC(C)[C@H](NC(=O)CSC(=O)[C@H](CC(N)=O)NC(=O)[C@H](CCCCN)NC(=O)[C@@H](N)Cc1ccc(O)cc1)C(N)=O [Peptide 1, YKN(S)GV]
half-life at 100 μM [8]: 40 min
Km [9]: 2760 ± 300 µM
kcat [9]: 56.5 ± 7.5 s⁻¹
half-life at 100 μM [10]: ~75 min

CC(C)[C@H](NC(=O)COC(=O)[C@H](CC(N)=O)NC(=O)[C@H](CCCCN)NC(=O)[C@@H](N)Cc1ccc(O)cc1)C(N)=O [Peptide 2, YKN(O)GV] (H-YKN[X1]V-NH2; N-terminus assumed)
half-life at 100 μM [8]: 37 min
Km [9]: 740 ± 10 µM
kcat [9]: 12.4 ± 0.32 s⁻¹
half-life at 100 μM [10]: 45 min

B1: Butelase 1: Asn/Asp(Asx)-specific ligase isolated from the medicinal plant Clitoria ternatea (SEQ ID NO:1) (protein, listed as Clitoria ternatea)
chain: VEGTRWAVLVAGSKGYVNYRHQADVCHAYQILKKGGLKDENIIVFMYDDIAYNESNPHPGVIINHPYGSDVYKGVPKDYVGEDINPPNFYAVLLANKSALTGTGSGKVLDSGPNDHVFIYYTDHGGAGVLGMPSKPYIAASDLNDVLKKKHASGTYKSIVFYVESCESGSMFDGLLPEDHNIYVMGASDTGESSWVTYCPLQHPSPPPEYDVCVGDLFSVAWLEDCDVHNLQTETFQQQYEVVKNKTIVALIEDGTHVVQYGDVGLSKQTLFVYMGTDPANDNNTFTDKNSLGTPRKAVSQRDADLIHYWEKYRRAPEGSSRKAEAKKQLREVMAHRMHIDN
catalytic efficiency [11]: up to 542,000 M^−1 s^−1
